≈ marks a conversion by molar mass, not a printed value.
What was measured:
Escherichia coli = experiment: Antibacterial activity against Escherichia coli; type: functional
Staphylococcus capitis = experiment: Antibacterial activity against Staphylococcus capitis; type: functional
[1] = target: Peptide deformylase (Escherichia coli) (UniProt P0A6K3); experiment: Inhibition against Escherichia coli Peptide deformylase was measured at a concentration of 1 uM
Peptide deformylase (Escherichia coli), sequence (P0A6K3 whole entry, looked up): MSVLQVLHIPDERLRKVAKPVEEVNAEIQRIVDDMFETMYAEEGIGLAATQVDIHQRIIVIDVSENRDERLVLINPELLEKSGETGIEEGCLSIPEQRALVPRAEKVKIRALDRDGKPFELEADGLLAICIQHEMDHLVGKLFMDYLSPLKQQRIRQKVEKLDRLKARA

| MIC (Escherichia coli) [µM] | MIC (Staphylococcus capitis) [µM] | inhibition [1] [%] | SMILES |
| --- | --- | --- | --- |
| 100 (≈ 32.9 µg/mL) | 200 (≈ 65.9 µg/mL) |  | CC(C)C[C@H](CN(O)C=O)C(=O)N[C@H](C(=O)N(C)C)C(C)(C)C |
| > 200 | > 200 | 20 | CCCC[C@@H](C(=O)N[C@H](C(=O)N(C)C)C(C)(C)C)N(O)C=O |
| > 200 | > 200 |  | CC(C)[C@H](CN(O)C=O)C(=O)N[C@H](C(=O)N(C)C)C(C)(C)C |
| 50 (≈ 17.2 µg/mL) | 200 (≈ 68.7 µg/mL) |  | CC(C)CC[C@H](CN(O)C=O)C(=O)N[C@H](C(=O)N(C)C)C(C)(C)C |
| 50 (≈ 15.8 µg/mL) | > 200 |  | CCC[C@H](CN(O)C=O)C(=O)N[C@H](C(=O)N(C)C)C(C)(C)C |
| > 200 | > 200 |  | CN(C)C(=O)[C@@H](NC(=O)[C@@H](CN(O)C=O)CN1CCCCC1)C(C)(C)C |
| > 200 | > 200 |  | CCCCCCC[C@H](CN(O)C=O)C(=O)N[C@H](C(=O)N(C)C)C(C)(C)C |
| > 200 | > 200 |  | CN(C)C(=O)[C@@H](NC(=O)[C@@H](CN(O)C=O)c1ccc(Cl)cc1)C(C)(C)C |
| 50 (≈ 16.3 µg/mL) | 100 (≈ 32.5 µg/mL) |  | CC#CC[C@H](CN(O)C=O)C(=O)N[C@H](C(=O)N(C)C)C(C)(C)C |
| 200 (≈ 60.3 µg/mL) | > 200 |  | CC[C@H](CN(O)C=O)C(=O)N[C@H](C(=O)N(C)C)C(C)(C)C |
| > 200 | > 200 |  | CN(C)C(=O)[C@@H](NC(=O)[C@@H](CN(O)C=O)C1CCCC1)C(C)(C)C |
| > 200 | > 200 |  | CCCC[C@@H](CN(O)C=O)C(=O)N[C@H](C(=O)N(C)C)C(C)(C)C |
| 12.5 (≈ 4.44 µg/mL) | 12.5 (≈ 4.44 µg/mL) |  | CN(C)C(=O)[C@@H](NC(=O)[C@H](CC1CCCC1)CN(O)C=O)C(C)(C)C |
| 50 (≈ 15.7 µg/mL) | > 200 |  | C=CC[C@H](CN(O)C=O)C(=O)N[C@H](C(=O)N(C)C)C(C)(C)C |
| > 200 | > 200 |  | CCCC[C@H](CCN(O)C=O)C(=O)N[C@H](C(=O)N(C)C)C(C)(C)C |
| 25 (≈ 8.69 µg/mL) | > 200 |  | CCSC[C@H](CN(O)C=O)C(=O)N[C@H](C(=O)N(C)C)C(C)(C)C |
| 25 (≈ 8.19 µg/mL) | 200 (≈ 65.5 µg/mL) |  | C=CCC[C@H](CN(O)C=O)C(=O)N[C@H](C(=O)N(C)C)C(C)(C)C |
| 50 (≈ 18.5 µg/mL) | 25 (≈ 9.24 µg/mL) |  | CN(C)C(=O)[C@@H](NC(=O)[C@H](CC1CCCCC1)CN(O)C=O)C(C)(C)C |
| 100 (≈ 35.7 µg/mL) | > 200 |  | CCCCCC[C@H](CN(O)C=O)C(=O)N[C@H](C(=O)N(C)C)C(C)(C)C |
| > 200 | > 200 |  | COc1ccc(C[C@H](CN(O)C=O)C(=O)N[C@H](C(=O)N(C)C)C(C)(C)C)cc1 |
| 25 (≈ 9.09 µg/mL) | 50 (≈ 18.2 µg/mL) |  | CN(C)C(=O)[C@@H](NC(=O)[C@H](Cc1ccccc1)CN(O)C=O)C(C)(C)C |
| > 200 | > 200 |  | CCCCCCCC[C@H](CN(O)C=O)C(=O)N[C@H](C(=O)N(C)C)C(C)(C)C |
| 25 (≈ 8.59 µg/mL) | 25 (≈ 8.59 µg/mL) |  | CCCCC[C@H](CN(O)C=O)C(=O)N[C@H](C(=O)N(C)C)C(C)(C)C |
| > 200 | > 200 |  | C[C@H](CN(O)C=O)C(=O)N[C@H](C(=O)N(C)C)C(C)(C)C |
| > 200 | > 200 | 30 | CCCC[C@H](C(=O)N[C@H](C(=O)N(C)C)C(C)(C)C)N(O)C=O |
| > 200 | > 200 |  | CCCC[C@@H](C(=O)N[C@H](C(=O)N(C)C)C(C)(C)C)C(C)N(O)C=O (some centres undefined) |
